Test [1] deals with T1, HIV-1 integrase (wild-type IN) (Human immunodeficiency virus type 1 group M subtype B, UniProt P12497). Kind of test: HIV-1 integrase 3′-processing assay (32P-labeled 21-mer, gel). Type of test: biochemical. From the text: (§1) The oligonucleotides 21 top, 5′-[…]-3′ (SEQ ID NO:1) and 21 bot, 5′-[…]-3′ (SEQ ID NO:2) were purchased from Norris Cancer Center Core Facility (University of Southern California) and purified by UV shadowing on polyacrylamide gel. To analyze the extent of 3′-processing and strand transfer using 5′-end labeled substrates, 21 top was 5′-end labeled using T4 polynucleotide kinase (Epicentre, Madison, Wis.) and γ [^32P]-ATP (Amersham Biosciences or ICN). The kinase was heat-inactivated and 21 bot was added in 1.5-molar excess. The mixture was heated at 95° C., allowed to cool slowly to room temperature, and run through a spin 25 mini-column (USA Scientific) to separate annealed double-stranded oligonucleotide from unincorporated material.
(§2) To determine the extent of 3′-processing and strand transfer, wild-type IN was preincubated at a final concentration of 200 nM with the inhibitor in reaction buffer (50 mM NaCl, 1 mM HEPES, pH 7.5, 50 μM EDTA, 50 μM dithiothreitol, 10% glycerol (w/v), 7.5 mM MnCl2, 0.1 mg/ml bovine serum albumin, 10 mM 2-mercaptoethanol, 10% dimethyl sulfoxide, and 25 mM MOPS, pH 7.2) at 30° C. for 30 min. Then, 20 nM of the 5′-end ^32P-labeled linear oligonucleotide substrate was added, and incubation was continued for an additional one hour. Reactions were quenched by the addition of an equal volume (16 μl) of loading dye (98% deionized formamide, 10 mM EDTA, 0.025% xylene cyanol and 0.025% bromophenol blue). An aliquot (5 μl) was electrophoresed on a denaturing 20% polyacrylamide gel (0.09 M tris-borate pH 8.3, 2 mM EDTA, 20% acrylamide, 8M urea).
(§3) Gels were dried, exposed in a PhosphorImager cassette, and analyzed using a Typhoon 8610 Variable Mode Imager (Amersham Biosciences) and quantitated using ImageQuant 5.2. Percent inhibition (% I) was calculated using the following equation: %I=100×[1−(D−C)/(N−C)]
(§4) where C, N, and D are the fractions of 21-mer substrate converted to 19-mer (3′-processing product) or strand transfer products for DNA alone, DNA plus IN, and IN plus drug, respectively. The IC50 values were determined by plotting the logarithm of drug concentration versus percent inhibition to obtain concentration that produced 50% inhibition. […]

The target in test [2] is T1, HIV-1 integrase (wild-type IN). Put plainly: HIV-1 integrase strand transfer assay (32P-labeled 21-mer, gel). Type of test: biochemical.
Text: as §1, §2, §3, §4

The mark [3] stands for this setting: wild-type IN 200 nM, 7.5 mM MnCl2, read-out: Inhibition of IN Catalytic Activities IC50 (μM) 3′-processing.
The mark [4] stands for this setting: wild-type IN 200 nM, 7.5 mM MnCl2, read-out: Inhibition of IN Catalytic Activities IC50 (μM) Strand Transfer.
The mark [5] stands for this setting: unit inferred, read-out: HIV-1 IN Inhibitory Activities 3′-processing.
[6] abbreviates: unit inferred, read-out: HIV-1 IN Inhibitory Activities Strand transfer.
The mark [7] stands for this setting: unit inferred, read-out: IN inhibition activity 3′-processing.
The mark [8] stands for this setting: unit inferred, read-out: IN inhibition activity Strand transfer.

Structures are written as SMILES. Where only a bound is given, the exact number is not on record here.

With `O=C(CCN1C(=O)C(=Cc2ccc3c(c2)OCO3)SC1=S)Nc1ccc(O)c(C(=O)O)c1` [Compound X94], the IC50 in test [1] (setting [3]) is 15 ± 10 µM; in test [2] (setting [4]), 17 ± 11 µM.
Taken in the same sequence, the figures for `CCOc1ccc(C=C2SC(=S)N(CCC(=O)Nc3cccc(C(=O)O)c3)C2=O)cc1` [Compound X95] were 93 ± 12 µM and above 100 µM.
With `Cc1ccc(C=C2SC(=S)N(CC(=O)Nc3cccc(C(=O)O)c3)C2=O)cc1` [Compound X97], the IC50 was 98 ± 4 µM in test [1] (setting [3]) and above 100 µM in test [2] (setting [4]).
`O=C(CN1C(=O)/C(=C2\SC(=S)N(CC(=O)Nc3ccc(C(=O)O)cc3)C2=O)SC1=S)Nc1ccc(C(=O)O)cc1` [Compound X102]: the results for the IC50 in test [1] (setting [3]) and in test [2] (setting [4]) were 59 ± 31 µM and 75 µM, respectively.
In the case of `O=C(CN1C(=O)/C(=C2\SC(=S)N(CC(=O)Nc3ccc(O)cc3)C2=O)SC1=S)Nc1ccc(O)cc1` [Compound X103], the results for the IC50 in test [1] (setting [3]) and in test [2] (setting [4]) were 59 ± 37 µM and 69 µM, respectively.
Regarding `COc1cc(C(=O)Nc2ccc(O)c(C(=O)O)c2)cc(OC)c1OC` [Compound X108], the IC50 in test [1] (setting [3]) and in test [2] (setting [4]) was above 100 µM each time.
Consider `Cc1ccc(/C=C2\SC(=S)N(CCC(=O)Nc3ccc(S(=O)(=O)Nc4nccs4)cc3)C2=O)cc1` [Compound X124], for which the IC50 in test [1] (setting [3]) is 83 ± 21 µM; in test [2] (setting [4]), 44 ± 16 µM.
In the case of `O=C(O)c1ccc(S(=O)(=O)c2ccc3c(c2)C(=O)N(c2ccc(O)c(C(=O)O)c2)C3=O)cc1` [Compound X125], the IC50 turned out to be 66 ± 6 µM in test [1] (setting [3]) and 44 ± 4 µM in test [2] (setting [4]).
For `Cc1ccc2[nH]c(/C(C#N)=C\c3ccc(-c4ccc(C(=O)O)c(O)c4)o3)nc2c1` [Compound X132], the IC50 in test [1] (setting [3]) turned out to be 16 ± 5 µM; in test [2] (setting [4]), 8 ± 1 µM.
In the case of `COc1ccc2oc(=O)c(-c3csc(N/N=C/c4ccccc4O)n3)cc2c1` [Compound X143], the IC50 came out at 30 µM in test [1] (setting [5]) and 10 µM in test [2] (setting [6]).
As for `COc1ccc2oc(=O)c(-c3csc(N/N=C/c4ccco4)n3)cc2c1` [Compound X144], the IC50 in test [1] (setting [5]) came to 78 µM; in test [2] (setting [6]), 29 µM.
Take `Cc1ccc(C(=O)C2=C(O)C(=O)N(CCCn3ccnc3)C2c2ccc(Cl)cc2)cc1` (centres unmarked) [Compound X155]: the IC50 in test [1] (setting [5]) stood at 93 µM; in test [1] (setting [7]), 93 ± 12 µM; in test [2] (setting [6]), 67 µM; in test [2] (setting [8]), 67 ± 28 µM.
Consider `O=C(CCCN1C(=O)C(=Cc2cccs2)SC1=S)Nc1ccc(O)c(C(=O)O)c1` [Compound X169], for which the IC50 was determined as 44 ± 20 µM in test [1] (setting [3]) and 35 ± 16 µM in test [2] (setting [4]).
Take `CCc1ccc(C=C2SC(=S)N(CCC(=O)Nc3ccc(O)c(C(=O)O)c3)C2=O)cc1` [Compound X170]: the results for the IC50 in test [1] (setting [3]) and in test [2] (setting [4]) were 15 ± 3 µM and 11 ± 5 µM, respectively.
`COc1cc(C=C2SC(=S)N(CC(=O)Nc3cc(Cl)ccc3O)C2=O)cc(OC)c1OC` [Compound X171]: the values for the IC50 in test [1] (setting [3]) and in test [2] (setting [4]) were 32 ± 11 µM and 17 ± 2 µM, respectively.
`O=C(CCN1C(=O)C(=Cc2cccs2)SC1=S)Nc1ccc(O)c(C(=O)O)c1` [Compound X172]: the IC50 in test [1] (setting [3]) and in test [2] (setting [4]) was 38 ± 16 µM throughout.
With `COc1cc(C=C2SC(=S)N(CCC(=O)Nc3ccc(C(=O)O)cc3)C2=O)cc(OC)c1OC` [Compound X173], the IC50 in test [1] (setting [3]) came to 97 ± 6 µM; in test [2] (setting [4]) it was 85 ± 15 µM.
On to `O=C(CCN1C(=O)/C(=C/c2cccs2)SC1=S)Nc1ccc2ccccc2c1` [Compound X174], for which the IC50 in test [1] (setting [3]) and in test [2] (setting [4]) was above 100 µM throughout.
Consider `O=C(CCN1C(=O)C(=Cc2cccs2)SC1=S)Nc1cccc(O)c1` [Compound X177], for which the IC50 in test [1] (setting [3]) and in test [2] (setting [4]) was above 100 µM each time.
`CC(=Cc1ccccc1)C=C1SC(=S)N(CCC(=O)Nc2ccc(O)c(C(=O)O)c2)C1=O` [Compound X185]: the IC50 is 36 ± 23 µM in test [1] (setting [3]) and 23 ± 3 µM in test [2] (setting [4]).
As to `O=C(CCN1C(=O)/C(=C/c2ccc3c(c2)OCO3)SC1=S)Nc1ccc2c(c1)OCO2` [Compound X187], the IC50 in test [1] (setting [3]) came out at 97 ± 6 µM; in test [2] (setting [4]), 93 ± 12 µM.
Turning to `O=C(CCN1C(=O)C(=Cc2ccc3c(c2)OCO3)SC1=S)Nc1ccc(C(=O)O)c(O)c1` [Compound X188], the IC50 in test [1] (setting [3]) turned out to be 33 ± 23 µM; in test [2] (setting [4]), 23 ± 13 µM.
Regarding `Cc1ccc(C=C2SC(=S)N(CC(=O)Nc3cc([N+](=O)[O-])ccc3O)C2=O)cc1` [Compound X191], the IC50 in test [1] (setting [3]) was 84 ± 24 µM; in test [2] (setting [4]) it was 80 ± 18 µM.
As for `COc1ccc(C=C2SC(=S)N(CCC(=O)Nc3ccc(C(=O)O)c(O)c3)C2=O)cc1OC` [Compound X192], the figures for the IC50 in test [1] (setting [3]) and in test [2] (setting [4]) were 61 ± 34 µM and 17 ± 4 µM, respectively.
As for `O=C(CN1C(=O)C(=Cc2ccccc2Cl)SC1=S)Nc1ccc([N+](=O)[O-])cc1O` [Compound X193], the IC50 in test [1] (setting [3]) and in test [2] (setting [4]) was above 100 µM in each case.
Consider `O=C(CN1C(=O)C(=Cc2ccccc2Cl)SC1=S)Nc1cc([N+](=O)[O-])ccc1O` [Compound X194], for which the IC50 in test [1] (setting [3]) was 20 ± 7 µM; in test [2] (setting [4]) it was 18 ± 11 µM.
The like results for `Cc1ccc(C=C2SC(=S)N(CC(=O)Nc3ccc([N+](=O)[O-])cc3O)C2=O)cc1` [Compound X195] were, in that order, above 100 µM and above 100 µM.
The like results for `O=C(NC(=S)Nc1ccc(O)c(C(=O)O)c1)c1ccccc1` [Compound X199] were, in that order, above 100 µM and above 100 µM.
The like results for `O=C(CCN1C(=O)/C(=C/c2ccccc2Cl)SC1=S)Nc1ccc([N+](=O)[O-])cc1` [Compound X200] were, in that order, above 100 µM and above 100 µM.
As for `O=C1/C(=C/c2ccc(O)cc2O)SC(=S)N1c1ccccc1` [Compound X221], the IC50 in test [1] (setting [3]) and in test [2] (setting [4]) was above 100 µM throughout.
As to `CCOc1cc(/C=C2\SC(=S)N(NC(=O)c3ccccc3O)C2=O)ccc1O` [Compound X223], the IC50 in test [1] (setting [3]) came out at 70 ± 27 µM; in test [2] (setting [4]) it was 38 ± 14 µM.
The like results for `CC(C)Cn1c(=O)c(C(=O)Nc2ccccc2S(N)(=O)=O)c(O)c2ccccc21` [Compound X228] were, in that order, 40 µM and 16 µM.
Turning to `O=C(N/N=C1/C(=O)Nc2ccc(F)cc21)/C(=C/C=C/c1ccccc1)NC(=O)c1ccccc1` [Compound X231], the IC50 turned out to be 60 µM in test [1] (setting [5]) and 38 µM in test [2] (setting [6]).
The like results for `O=C(N/N=C/c1cc(Br)ccc1O)/C(=C/C=C/c1ccccc1)NC(=O)c1ccccc1` [Compound X234] were, in that order, 90 µM and 23 µM.
Regarding `O=C(CSc1nc2ccccc2n1Cc1ccccc1)N/N=C/c1cc(Br)ccc1O` [Compound X244], the values for the IC50 in test [1] (setting [7]) and in test [2] (setting [8]) were 60 ± 11 µM and 51 ± 3 µM, respectively.
As for `O=C(Nc1ccc(O)c(-c2nc3cc(Cl)ccc3o2)c1)c1cccnc1` [Compound X255], the IC50 is 61 µM in test [1] (setting [5]) and 10 µM in test [2] (setting [6]).
Taken in the same sequence, the figures for `O=C(COc1ccccc1[N+](=O)[O-])Nc1ccc(O)c(-c2nc3ccccc3s2)c1` [Compound X257] were 99 µM and 80 µM.
Regarding `CCOC(=O)c1c(-c2ccccc2)csc1NC(NC(=O)c1ccco1)C(=O)c1ccc(C)cc1` (centres unmarked) [Example X88], the IC50 in test [1] (setting [5]) is above 100 µM; in test [2] (setting [6]) it was 79 µM.
On to `O=C(N/N=C1\C(=O)Nc2ccc(Br)cc21)/C(O)=C/C(=O)c1ccc(Cl)cc1` [Example X115], for which the IC50 is 42 µM in test [1] (setting [5]) and 28 µM in test [2] (setting [6]).
The like results for `COc1ccc(CCNC(=O)CC(=O)N/N=C/c2ccco2)cc1OC` [Example X134] were, in that order, above 100 µM and 90 µM.
`O=C(Nc1ccccc1C(=O)O)c1cccc(S(=O)(=O)Nc2cccc([N+](=O)[O-])c2)c1` [Example X148]: the IC50 in test [1] (setting [5]) amounted to 89 µM; in test [2] (setting [6]), 90 µM.
With `O=C(/C=C/c1ccc(Cl)cc1)Nc1ccc(NC(=O)c2ccco2)cc1` [Example X159], the IC50 in test [1] (setting [5]) came out at 90 µM; in test [2] (setting [6]), 91 µM.
With `O=C(c1ccccc1)c1cc(Br)ccc1NC(=O)c1nc[nH]c1C(=O)O` [Example X160], the figures for the IC50 in test [1] (setting [5]) and in test [2] (setting [6]) were 16 µM and 17 µM, respectively.
The like results for `O=C(O)C(Cc1c[nH]c2ccccc12)NS(=O)(=O)c1ccccc1[N+](=O)[O-]` (centres unmarked) [Example X182] were, in that order, 88 µM and 56 µM.
The like results for `O=C(/C=C/c1ccco1)NC(=S)Nc1ccccc1O` [Example X205] were, in that order, 57 µM and 28 µM.

Values taken from patent US8183236B2, “Compounds with HIV-1 integrase inhibitory activity and use thereof as anti-HIV/AIDS therapeutics” (University of Southern California, priority 2007, dated 2012).
